# Read-outs that look alike come from different tables or passages of the source.
# What was measured:
# Cx43 HCs [1] = biological target: T1, Cx43 HCs (Homo sapiens, UniProt P17302); assay: Cx43-dependent growth complementation assay in E. coli LB2003; type: cell-based; conditions: for inhibition at 15 µM / Cx43 inhibition (%): 15 μM; for Cx43/Cx26 Selectivity: IC50 Cx26/IC50 Cx43; for IC50: read-out: Cx43 IC50; for Cx43 Imax: second Cx43 column, sub-head and unit not given
# T1 construct: expressed in transfected cells
# T1 sequence (P17302 whole entry): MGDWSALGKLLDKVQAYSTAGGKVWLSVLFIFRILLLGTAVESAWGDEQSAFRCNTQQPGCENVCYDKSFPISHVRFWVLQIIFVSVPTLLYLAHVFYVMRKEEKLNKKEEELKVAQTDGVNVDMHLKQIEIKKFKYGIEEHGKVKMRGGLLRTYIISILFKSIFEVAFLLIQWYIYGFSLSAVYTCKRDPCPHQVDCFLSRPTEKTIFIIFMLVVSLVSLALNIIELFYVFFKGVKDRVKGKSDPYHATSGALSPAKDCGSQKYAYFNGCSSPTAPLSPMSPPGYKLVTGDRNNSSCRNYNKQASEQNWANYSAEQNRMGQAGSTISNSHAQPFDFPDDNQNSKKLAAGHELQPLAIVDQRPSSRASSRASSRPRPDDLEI
# human Cx26 HCs [2] = biological target: T2, human Cx26 HCs (Homo sapiens, UniProt P29033); assay: Cx26-dependent growth complementation assay in E. coli LB2003; type: cell-based; conditions: for Cx26 Imax: sub-head and unit not given; for IC50: read-out: Cx26 IC50
# T2 construct: expressed in transfected cells; host or cells: E. coli LB2003 (carrying pREP4), transformed with pQE-Cx26, IPTG-induced
# Protocol: These derivatives were prepared by sequential benzylation and methylation followed by reduction of azido groups or hydrogenolysis of the Bn. […] Connexin HC inhibition was conducted using a bacteria-based assay of HC function^39. In this assay, Cx26 HCs are expressed in E. coli LB2003 cells, which lack three major K^+ uptake systems (Kdp, Kup and Trk), and as a result they cannot grow in low-[K^+] media^39-41. However, growth of this E. coli strain in low-[K^+] medium can be rescued by expression of K^+-permeable channels such as connexin HCs^39, 42-43. Under the conditions of the assay (LB2003 cells expressing HCs and grown in low-K^+ medium), inhibition of the HCs reduces or abolishes growth^39, 42-43. This is a simple assay where bacterial growth in multi-well plates can be followed by measuring the absorbance at 600 nm (OD600)^29.
# LB2003 cells generously provided by Dr. E. P. Bakker (Osnabruk University, Osnabruk, Germany) were transformed with the plasmid pQE-Cx26 (human Cx26 into pQE60) and pREP4. […] LB2003 cells cannot grow in low-[K^+] media because of insufficient K^+ uptake for growth due to the knockout of three key K^+ transporters (Atrk, Akup, Akdp strain)^2-4. Details and validation of the growth complementation assay have been published recently^2. In brief, competent LB2003 containing the pREP4 plasmid were transformed with pQE-Cx26. These cells were grown overnight in Luria-Bertani medium (BD, Franklin Lakes, NJ, USA) supplemented with 100 mM KCl (to allow growth) and 0.4 mg/mL ampicillin, and then washed four times with NLM (see below), to remove residual K^+ from the Luria-Bertani medium. The washed cells were resuspended in complementation growth medium to an OD600 of 0.2. NLM contained 46 mM Na2HPO4, 23 mM NaH2PO4, 8 mM (NH4)2SO4, 0.4 mM MgSO4, 0.012 mM FeSO4, 1 mM sodium citrate, 44 mM glucose and 0.006 mM thiamine hydrochloride, pH 7.0. KLM had the same composition that NLM except for the equimolar replacement of Na^+ with K^+. For growth complementation we used NLM+4 mM KCl, and Cx26 expression was induced with 0.5 mM IPTG at the time of dilution to OD600=0.2. For the assay, the cells were seeded in 96-well plates and were incubated at 30° C., with shaking at 500 rpm. OD600 was measured after 18-h incubation in a plate reader. The initial OD600=0.2 was subtracted for growth calculations. Data are presented as means±SEM. Statistically significant differences were calculated by the Student t-test for unpaired data. Data were obtained from at least 3 independent experiments, with 3 repeats per experiment.
# human Cx26 HCs [3] = biological target: T2, human Cx26 HCs; conditions: commercial aminoglycosides, the 16th table, adapted from ref. 1; cited from earlier work
# Cx43 HCs [4] = biological target: T1, Cx43 HCs; conditions: commercial aminoglycosides, the 16th table, adapted from ref. 1; read-out: Cx43 IC50; cited from earlier work
# [5] = KI members, the 23rd table, read-out: Cx43 % inhibition
# [6] = Table 6, read-out: Cx43 (% inhibition)
# [7] = the 15th table, sub-head and unit inferred
# [8] = the 15th table, Cx26, unit not given (cf. the 22nd table)
# [9] = Table 3, read-out: Cx243% inhibition
inhibition at 15 µM (Cx43 HCs [1]; [5]),inhibition at 15 µM (Cx43 HCs [1]; [6]),inhibition at 50 µM (Cx43 HCs [1]; [5]),inhibition at 50 µM (Cx43 HCs [1]; [6]),IC50 (Cx43 HCs [1]; Table 7),inhibition at 15 µM (human Cx26 HCs [2]; Table 3),inhibition at 15 µM (human Cx26 HCs [2]; Table 6),inhibition at 50 µM (human Cx26 HCs [2]; Table 3),inhibition at 50 µM (human Cx26 HCs [2]; Table 6),Compound,IC50 (human Cx26 HCs [3]),IC50 (Cx43 HCs [4]),further results
43.9 ± 4.3%,> 50%,58.2 ± 3.9%,70.9 ± 2.3%,9.7 ± 1.8 µM,16.4 ± 2.3%,16.4 ± 2.3%,56.2 ± 6.8%,56.2 ± 6.8%,CCCCCCCCCCCC(=O)NCC1O[C@H](OC2C(N)CC(N)C(OC3O[C@H](CO)C(O)C(N)[C@H]3O)[C@H]2O)C(O)C(O)[C@@H]1O (stereo partly shown) [KI04],,,"Cx43 inhibition (%) (Cx43 HCs [1]; Table 6, listed as 4i): 53.6 ± 4.6%; Cx43/Cx26 Selectivity (Cx43 HCs [1]; Table 7, listed as 4i): 6.88; Cx43 Imax (Cx43 HCs [1]; the 15th table): 82.2 ± 5.9; IC50 (Cx43 HCs [1]; [7]): 9.7 ± 1.8 µM; Cx26 Imax (human Cx26 HCs [2]; the 15th table, Cx26): 118.0 ± 7.6; IC50 (human Cx26 HCs [2]; [8]): 66.7 ± 6.9 µM"
25.5 ± 7.1%,25.5 ± 7.1%,51 ± 2.5%,51 ± 2.5%,,8.8 ± 2%,8 ± 2%,22.8 ± 2.2%,22.8 ± 2.2%,NC1CC(N)C(O[C@H]2OC(CNC(=O)c3cc(-c4ccccc4)nc4ccccc34)[C@@H](O)C(O)C2O)[C@H](O)C1OC1O[C@H](CO)C(O)C(N)[C@H]1O (stereo partly shown) [KI08],,,inhibition at 15 µM (Cx43 HCs [1]; [9]): 25.5 ± 7.1%; inhibition at 50 µM (Cx43 HCs [1]; [9]): 51 ± 2.5%
43 ± 10.7%,> 50%,56.8 ± 11%,69.6 ± 7.5%,8.6 ± 1 µM,36.9 ± 3.9%,36.9 ± 3.9%,79.2 ± 7.5%,79.2 ± 7.5%,NC1CC(N)C(O[C@H]2OC(CNC(=O)CCCc3ccc4ccc5cccc6ccc3c4c56)[C@@H](O)C(O)C2O)[C@H](O)C1OC1O[C@H](CO)C(O)C(N)[C@H]1O (stereo partly shown) [KI09],,,"Cx43 inhibition (%) (Cx43 HCs [1]; Table 6, listed as 4e): 52.2 ± 8.8%; Cx43/Cx26 Selectivity (Cx43 HCs [1]; Table 7): 2,16; Cx43 Imax (Cx43 HCs [1]; the 15th table): 80.2 ± 7.0; IC50 (Cx43 HCs [1]; [7]): 8.6 ± 3 µM; Cx26 Imax (human Cx26 HCs [2]; the 15th table, Cx26): 95.3 ± 3.5; IC50 (human Cx26 HCs [2]; [8]): 18.6 ± 2.1 µM"
56.8 ± 8.8%,> 50%,83.4 ± 1.1%,83.4 ± 1.1%,8.9 ± 3.7 µM,22.3 ± 6.9%,22.3 ± 6.9%,79.6 ± 3.5%,79.6 ± 3.5%,NC1CC(N)C(O[C@H]2OC(CNC(=O)c3ccccc3-c3c4ccc(=O)cc-4oc4ccc(O)cc34)[C@@H](O)C(O)C2O)[C@H](O)C1OC1O[C@H](CO)C(O)C(N)[C@H]1O (stereo partly shown) [KI10],,,inhibition at 15 µM (Cx43 HCs [1]; [9]): 56.8 ± 8.8%; inhibition at 50 µM (Cx43 HCs [1]; [9]): 83.4 ± 1.1%; Cx43/Cx26 Selectivity (Cx43 HCs [1]; Table 7): 1.42; IC50 (human Cx26 HCs [2]; Table 7): 12.7 ± 2.2 µM
,,,,,,,,,NC[C@H]1O[C@H](O[C@H]2[C@H](O)[C@@H](O[C@H]3O[C@H](CO)[C@@H](O)[C@H](N)[C@H]3O)[C@H](N)C[C@@H]2N)[C@H](N)[C@@H](O)[C@@H]1O [Kanamycin B],3.6 ± 0.9 µM,24 ± 2 µM,Cx43/Cx26 Selectivity (Cx43 HCs [1]; the 16th table): 0.15
,,,,,,,,,NC[C@H]1O[C@H](O[C@H]2[C@H](O[C@@H]3O[C@H](CO)[C@@H](O)[C@H]3O)[C@@H](O)[C@H](N)C[C@@H]2N)[C@H](N)[C@@H](O)[C@@H]1O [Ribostamycin],> 100 µM,> 200 µM,
,,,,,,,,,Neomycin,7.4 ± 1.3 µM,45 ± 9 µM,Cx43/Cx26 Selectivity (Cx43 HCs [1]; the 16th table): 0.16

# — patent publication US12286452B2, “Amphiphilic aminoglycoside connexin hemichannel inhibitors” (Texas Tech University System, priority 2018, dated 2025)
